# In paper PMC9721426, “Novel piperine-carboximidamide hybrids: design, synthesis, and antiproliferative activity via a multi-targeted inhibitory pathway” (Journal of Enzyme Inhibition and Medicinal Chemistry, 2022):
# Legend:
# [1] = test system: Panc-1 (pancreatic cancer cell line); assay: Antiproliferative MTT assay, Panc-1; assay type: cell-based; settings: Homo sapiens; Panc-1, MTT; read-out: Antiproliferative activity IC50 ± SEM, Panc-1
# Description: (§1) The MTT assay was performed using various cell lines in accordance with previously reported procedures[28]^,[29] to investigate the antiproliferative potential of VIa-k. Refer to Appendix A. […]
# (§2) added (in 200 μL medium to yield a final concentration of 0.1% v/v) to the wells of plates. A single compound was designated with four wells followed by incubation of […]
# (§3) After incubation, medium was removed completely from the plates followed by addition of MTT (0.4 mg/mL in medium) to each well and subsequent incubation of plates for 3h. MTT (along with the medium) was removed and DMSO (150μL) was added to each well of the culture plates, followed by vortexing and subsequent measurement of absorbance (at 540 nm) using microplate reader. The data are shown as percentage inhibition of proliferation in comparison with controls containing 4.2.1.2. Assay for antiproliferative effect […]
# (§4) The percentage cytotoxicity of compounds was calculated using the following […]
# (§5) Where ATC= Absorbance of treated cells and AC= Absorbance of control. […]
# (§6) used as positive control in the assay. […]
# [2] = test system: LOX-IMVI melanoma cell line; assay: LOX-IMVI melanoma cell line MTT cytotoxicity assay; assay type: cell-based; settings: Homo sapiens, 5-dose concentrations, read-out: LOX-IMVI melanoma IC50 ± SEM
# Description: The MTT cytotoxicity assay was used to assess the anticancer activity of VIc, VIf, and VIk on the LOX-IMVI melanoma cell line, which comprises BRAF^V600E kinase overexpression. The compounds were evaluated at 5-dose concentrations to ascertain their IC50 values, with staurosporine acting as a control.
# The MTT cytotoxicity assay was used to assess the anticancer activity of VIc, VIf, and VIk on the LOX-IMVI melanoma cell line, which comprises BRAF^V600E kinase overexpression. Refer to Appendix A.
# [3] = test system: A-549 (epithelial cancer cell line); assay: Antiproliferative MTT assay, A-549; assay type: cell-based; settings: Homo sapiens, A549; A-549, MTT; read-out: Antiproliferative activity IC50 ± SEM, A-549
# Description: as §1, §2, §3, §4, §5, §6
# [4] = target: T1, EGFR (Homo sapiens, UniProt P00533); assay: EGFR-TK inhibitory assay; assay type: biochemical; settings: EGFR-TK assay; read-out: EGFR inhibition IC50 ± SEM
# T1 construct: cytoplasmic domain (EGFR -CD, amino acids 645–1186); His6 (N); made in house; host or cells: Sf-9 insect cells (baculovirus, pBlueBacHis2B / pFASTBacHTc)
# T1 sequence (P00533 669-1210): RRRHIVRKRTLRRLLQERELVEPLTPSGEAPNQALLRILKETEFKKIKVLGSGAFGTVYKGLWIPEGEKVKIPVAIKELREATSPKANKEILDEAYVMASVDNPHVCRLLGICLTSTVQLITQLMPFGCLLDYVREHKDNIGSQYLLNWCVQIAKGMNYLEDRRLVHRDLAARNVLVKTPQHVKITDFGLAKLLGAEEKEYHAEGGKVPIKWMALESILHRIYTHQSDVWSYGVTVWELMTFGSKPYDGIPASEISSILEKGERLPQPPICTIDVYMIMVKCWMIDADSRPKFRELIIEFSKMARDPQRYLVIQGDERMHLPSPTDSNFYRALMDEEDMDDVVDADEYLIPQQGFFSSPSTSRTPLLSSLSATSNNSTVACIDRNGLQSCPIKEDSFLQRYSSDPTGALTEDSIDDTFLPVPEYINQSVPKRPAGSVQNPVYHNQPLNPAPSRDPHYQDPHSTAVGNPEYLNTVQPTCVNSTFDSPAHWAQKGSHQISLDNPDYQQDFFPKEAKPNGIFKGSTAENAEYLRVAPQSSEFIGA
# Description: 4.2.1.3. EGFR inhibitory assay
# EGFR-TK assay was performed to evaluate the inhibitory potency of the tested compounds against EGFR30. Baculoviral expression vectors including pBlueBacHis2B […]
# sequence comprised a sequence that encoded (His) 6. Sf-9 cells were infected for 72h for protein expression. The pellets of Sf-9 cells were solubilized in a buffer containing sodium vanadate (100 µM), aprotinin (10 µg/mL), triton (1%), HEPES buffer (50mM), ammonium molybdate (10 µM), benzamidine HCl (16 µg/mL), NaCl (10 mM), leupeptin (10 µg/mL) and pepstatin (10 µg/mL) at 0°C for 20 min at pH 7.4, followed by centrifugation for 20 min. To eliminate the non-specifically bound material, a Ni-NTA super flow packed column was used to pass through and wash the crude extract supernatant first with 10 mM and then with 100 mM imidazole. […]
# NaCl (50 mM), HEPES (20 mM), glycerol (10%) and 1 µg/mL each of aprotinin, leupeptin and pepstatin for 120 min. The purification was performed either at 4 °C or on ice. To record autophosphorylation level, EGFR kinase assay was carried out on the basis of DELFIA/Time-Resolved Fluorometry. The compounds were first dissolved in DMSO […]
# pH 7.4. Each compound (10 µL) was incubated with recombinant enzyme (10 µL, 5 ng for EGFR, 1:80 dilution in 100 mM HEPES) for 10 min at 25 °C, subsequent to the addition of 5X buffer (10 µL, containing 2 mM MnCl2, 100 µM Na3VO4, 20 mM HEPES and 1 mM DTT) and ATP-MgCl2 (20 µL, containing 0.1 mM ATP and 50 mM MgCl 2) and incubation for 1h. The negative and positive controls were included in each plate by the incuba tion of enzyme either with or without ATP -MgCl2. The liquid was removed after incubation and the plates were washed thrice using wash buffer. Europium -tagged antiphosphotyrosine antibody (75 µL, 400 ng) was added to each well followed by incubation of 1h a nd then washing of the plates using buffer. The enhancement solution was added to each well and the signal was recorded at excitation and emission […]
# The autophosphorylation percentage inhibition by compounds was calculated using the following equation: […]
# Using the curves of percentage inhibition of eight concentrations of each compound, IC 50
# [5] = test system: HT-29 (colon cancer cell line); assay: Antiproliferative MTT assay, HT-29; assay type: cell-based; settings: Homo sapiens; HT-29, MTT; read-out: Antiproliferative activity IC50 ± SEM, HT-29
# Description: as §1, §2, §3, §4, §5, §6
# [6] = target: Human CDK2/A2 (Homo sapiens, UniProt P24941); assay: CDK2 inhibitory assay
# Description: Protein Kinase Assays. Human CDK2/A2 was purchased from New England Biolabs IC50 values for CDK2/A were determined according to the supplier’s instructions
IC50 [1] [nM],melting point [°C],IC50 [3] [nM],IC50 [4] [nM],IC50 [5] [nM],IC50 [6] [nM],CDK2 potency relative to the reference dinaciclib (more potent) ([6]; ratio of IC50 values) [fold],SMILES,IC50 [2] [nM]
53 ± 5,159 to 161,45 ± 5,112 ± 8,55 ± 5,23 ± 2,,"NC(=NOC(=O)/C=C/C=C/c1ccc2c(c1)OCO2)c1ccc(Br)cc1 [VIc, N'-{[(2E,4E)-5-(2H-1,3-Benzodioxol-5-yl)penta-2,4-dienoyl]oxy}-4-bromobenzene-1-carboximidamide]",1400 ± 20
45 ± 4,165 to 167,41 ± 4,105 ± 7,47 ± 4,21 ± 2,,"NC(=NOC(=O)/C=C/C=C/c1ccc2c(c1)OCO2)c1ccccc1Cl [VIf, N'-{[(2E,4E)-5-(2H-1,3-benzodioxol-5-yl)penta-2,4-dienoyl]oxy}-2-chlorobenzene-1-carboximidamide]",1100 ± 10
36 ± 3,,32 ± 3,127 ± 10,38 ± 3,12 ± 2,1.5,N/C(=N/OC(=O)/C=C/C=C/c1ccc2c(c1)OCO2)c1ccc2c(c1)OCO2 [VIk],1050 ± 10
